Results taken from US20200308620A1, “PREDICTING TUMOR SPECIFICITY OF TARGETED THERAPEUTICS USING ATOMIC FORCE MICROSCOPY (AFM)” (Children's Medical Center Corporation, priority 2017, published 2020).
≈ marks a conversion by molar mass, not a printed value.

Experiments:
normal red blood cells = settings: Li et al.; cited from earlier work
[1] = tested on: patient-derived NHL B cells; settings: cited from earlier work
[2] = tested on: ICAM1 expression on MDA-MB-231 cell surface; experiment: Flow cytometric analysis of ICAM1 surface expression pre- and post-MCD treatment; assay type: cell-based, human; settings: MDA-MB-231, pre- and post-MCD treatment
Source text: In addition to the overexpression level, the organization of antigens on the cell membrane is another key factor driving differences in antibody-antigen binding behavior^11. AFM-detected adhesive events were also used to spatially map the binding forces on MDA-MB-231 (FIG. 2E) and MCF10A (FIG. 2F) cell surface. […] These “hot-spots” are predicted to be the primary binding sites for ICAM1 antibody-directed nanomedicine due to the high binding forces. ICAM1 molecules may be enriched in membrane lipid rafts of MDA-MB-231 cells to facilitate functional signaling^22. […] In order to determine whether ICAM1 adhesion forces are dependent on the organization of ICAM1 molecules in lipid rafts on the cell membrane, both MDA-MB-231 and MCF10A cells were treated with methyl-beta-cyclodextrin (MCD), a cholesterol-depleting drug that disrupts lipid rafts, and then the average binding force was re-measured. […]
10^6 cells were collected and rinsed twice through suspension-spin cycles. […] Cells were rinsed with 1% BSA in PBS three times, resuspended in PBS, and evaluated by a BD FACSCalibur flow cytometer (BD Biosciences). Quantification of cell surface antigen was determined with reference to Quantum Simply Cellular microbeads, using the protocol provided by the manufacturer.

MDA-MB-231 cells = experiment: In vitro cytotoxicity (cell viability) assay; assay type: cell-based, human; settings: MDA-MB-231, Dox concentration, treated 4 hours, grown 48 hours
Method: In vitro cytotoxicity of ICAM-Dox-LPs on TNBC cells was evaluated using a cell viability assay. Five thousand cells (MDA-MB-231, MDA-MB-436, and MDA-MB-157) were seeded in each well of a 96 well plate and incubated for 24 hours. Cells were treated with (1) ICAM-LP without Dox; (2) Free Dox; (3) non-specific IgG-Dox-LPs and (4) ICAM-Dox-LPs for 4 hours. Cells were rinsed twice with PBS and grown for 48 hours. Cell viability was determined by a Dojindo cell counting kit using the manufacturer's protocol (Rockville, Md.).

Q: For “Rituximab: FDA-approved CD20 antibody for Non-Hodgkin's Lymphoma treatment”, which binding force (normal red blood cells) is on record?
A: The binding force was 21±19 pN.

Q: What about the “binding force difference (NHL B cells minus normal red blood cells)” value ([1]; NHL B cells minus normal red blood cells) of the same compound?
A: The value was 33 pN.

Q: And the binding force ([1]; patient-derived NHL B cells, Li et al.)?
A: The binding force was 54±34 pN.

Q: Which “effect on average ICAM1 expression on cell surface” value [2] does the source give for methyl-beta-cyclodextrin [MCD] here?
A: The value was “did not affect”.

Q: For `COc1cccc2c1C(=O)c1c(O)c3c(c(O)c1C2=O)C[C@@](O)(C(=O)CO)C[C@@H]3O[C@H]1C[C@H](N)[C@H](O)[C@H](C)O1` [free Dox, doxorubicin], which “IC50 (cytotoxicity)” value (MDA-MB-231 cells) is on record?
A: Its value is 7.4 µg/mL (≈ 13.6 µM).
